Measurements: patent publication US20180000771A1, “AGENT FOR PREVENTING AND/OR TREATING AMYOTROPHIC LATERAL SCLEROSIS” (KYOTO UNIVERSITY, priority 2015, published 2018)
Structures can show the parent of a compound that is named as a salt.

What was measured:
[1] = tested on: motoneuron cells derived from iPS cells having SOD1-L144FVX mutation; experiment: survival of motoneuron cells induced from ALS patient iPS cells (SOD1 mutation); conditions: for dose correlation in the protection effect on motoneuron cell having SOD1 mutation: FIG. 2, FIG. 6; for MN index (motoneuron cell survival number ratio as compared to negative control): SOD1-L144FVX motoneuron cells contacted with medicament for 7 days, negative control DMSO; for survival of motor neuron: familial ALS (mSOD1 ALS) motoneuron cells, 0, 0.01, 0.1, 1, 10 μM, n=6, p<0.05, FIG. 7; for cell survival rate improvement, SOD1 mutation / cell survival rate improving effect, significance, SOD1 mutation: added on day 7, survived motoneuron cells counted on day 14
[2] = tested on: motoneuron cells derived from iPS cells of ALS patients having C9orf72 mutation; experiment: survival of motoneuron cells induced from ALS patient iPS cells (C9orf72 mutation); format: cell-based, human; conditions: for cell survival rate improvement, C9orf72 mutation / cell survival rate improving effect, significance, C9orf72 mutation: added on day 7, survived motoneuron cells counted on day 14
[3] = tested on: motoneuron cells derived from iPS cells of sporadic ALS patients; experiment: survival of motoneuron cells induced from sporadic ALS patient iPS cells; format: cell-based, human; conditions: added on day 7, survived motoneuron cells counted on day 14

CC(O)CC(=O)O (racemic) [3-hydroxybutyric acid]
dose correlation in the protection effect on motoneuron cell having SOD1 mutation [1]: increase in the effect in a dose-dependent manner

CCN(CC)Cc1cc(Nc2ccnc3cc(Cl)ccc23)ccc1O [AMODIAQUINE DIHYDROCHLORIDE, AMODIAQUINE]
MN index (motoneuron cell survival number ratio as compared to negative control) [1]: 8.98

CN1CCc2cccc3c2[C@H]1Cc1ccc(O)c(O)c1-3 [APOMORPHINE HYDROCHLORIDE, APOMORPHINE]
MN index (motoneuron cell survival number ratio as compared to negative control) [1]: 7.26

O=C(Nc1c[nH]nc1-c1nc2cc(CN3CCOCC3)ccc2[nH]1)NC1CC1 [AT9283]
survival of motor neuron [1]: increased survival of motor neuron

CNC(=O)c1ccccc1Sc1ccc2c(/C=C/c3ccccn3)n[nH]c2c1 [Axitinib]
efficacy for ALS having C9orf72 mutation (conclusion from Tables 5 and 6) [2]: higher efficacy
cell survival rate improvement, C9orf72 mutation [2]: ○ (cell survival rate improvement not less than 20%)
cell survival rate improving effect, significance, C9orf72 mutation [2]: ○ (significant difference (p < 0.05))
cell survival rate improvement, sporadic [3]: x (cell survival rate improvement less than 20%)
cell survival rate improving effect, significance, sporadic [3]: x (no significant difference (p ≧ 0.05))
dose correlation in the protection effect on motoneuron cell having SOD1 mutation [1]: increase in the effect in a dose-dependent manner
MN index (motoneuron cell survival number ratio as compared to negative control) [1]: 7.35
cell survival rate improvement, SOD1 mutation [1]: x (cell survival rate improvement less than 20%)
cell survival rate improving effect, significance, SOD1 mutation [1]: x (no significant difference (p ≧ 0.05))

CCOc1ccn(-c2ccc(F)cc2)c(=O)c1C(=O)Nc1ccc(Oc2ccnc(N)c2Cl)c(F)c1 [BMS 777607]
MN index (motoneuron cell survival number ratio as compared to negative control) [1]: 8.55

Cn1cnc2cc3c(Nc4cccc(Br)c4)ncnc3cc21 [BPIQ-I]
MN index (motoneuron cell survival number ratio as compared to negative control) [1]: 8.14

CCCCOC(=O)c1ccc(N)cc1 [BUTAMBEN]
MN index (motoneuron cell survival number ratio as compared to negative control) [1]: 7.39

Cc1ccc(NC(=O)c2ccc(CN3CC[C@H](N(C)C)C3)c(C(F)(F)F)c2)cc1Nc1nccc(-c2cncnc2)n1 [Bafetinib]
survival of motor neuron [1]: increased survival of motor neuron

CCNC(=O)CCC/C=C\C[C@@H]1[C@@H](/C=C/[C@@H](O)CCc2ccccc2)[C@H](O)C[C@@H]1O [Bimatoprost]
dose correlation in the protection effect on motoneuron cell having SOD1 mutation [1]: increase in the effect in a dose-dependent manner

COc1cc(Nc2c(C#N)cnc3cc(OCCCN4CCN(C)CC4)c(OC)cc23)c(Cl)cc1Cl [Bosutinib]
cell survival rate improvement, C9orf72 mutation [2]: ○ (cell survival rate improvement not less than 20%)
cell survival rate improving effect, significance, C9orf72 mutation [2]: ○ (significant difference (p < 0.05))
cell survival rate improvement, sporadic [3]: ○ (cell survival rate improvement not less than 20%)
cell survival rate improving effect, significance, sporadic [3]: ○ (significant difference (p < 0.05))
cell survival rate improvement, SOD1 mutation [1]: ○ (cell survival rate improvement not less than 20%)
cell survival rate improving effect, significance, SOD1 mutation [1]: ○ (significant difference (p < 0.05))

Cc1nc(N)sc1-c1ccnc(Nc2ccc(N3CCOCC3)cc2)n1 [CYC116]
MN index (motoneuron cell survival number ratio as compared to negative control) [1]: 8.14

CCN(CC)C(=O)c1ccc(Nc2nc(OCC3CCCCC3)c3nc[nH]c3n2)cc1 [Cdk2 Inhibitor IV, NU6140]
MN index (motoneuron cell survival number ratio as compared to negative control) [1]: 7.08

C[C@@H](Oc1cc(-c2cnn(C3CCNCC3)c2)cnc1N)c1c(Cl)ccc(F)c1Cl [Crizotinib (PF- 2341066), Crizotinib]
MN index (motoneuron cell survival number ratio as compared to negative control) [1]: 7.60

C[C@@H](Oc1cc(-c2cnn(C3CCNCC3)c2)cnc1N)c1c(Cl)ccc(F)c1Cl [Crizotinib]
cell survival rate improvement, C9orf72 mutation [2]: x (cell survival rate improvement less than 20%)
cell survival rate improving effect, significance, C9orf72 mutation [2]: ○ (significant difference (p < 0.05))
cell survival rate improvement, sporadic [3]: x (cell survival rate improvement less than 20%)
cell survival rate improving effect, significance, sporadic [3]: x (no significant difference (p ≧ 0.05))
efficacy for ALS having SOD1 mutation (conclusion from Tables 5 and 6) [1]: higher efficacy
dose correlation in the protection effect on motoneuron cell having SOD1 mutation [1]: increase in the effect in a dose-dependent manner
cell survival rate improvement, SOD1 mutation [1]: ○ (cell survival rate improvement not less than 20%)
cell survival rate improving effect, significance, SOD1 mutation [1]: ○ (significant difference (p < 0.05))

CC1=NN(c2ccccc2)C(=O)C1 [Edaravone]
dose correlation in the protection effect on motoneuron cell having SOD1 mutation [1]: increase in the effect in a dose-dependent manner

Cn1cc(C2=C(c3cn(C4CCN(Cc5ccccn5)CC4)c4ccccc34)C(=O)NC2=O)c2ccccc21 [Enzastaurin]
MN index (motoneuron cell survival number ratio as compared to negative control) [1]: 9.84

O=C(O)CCC(=O)c1ccc(-c2ccccc2)cc1 [FENBUFEN]
MN index (motoneuron cell survival number ratio as compared to negative control) [1]: 7.22

CC1(C)O[C@@H]2C[C@H]3[C@@H]4C[C@H](F)C5=CC(=O)C=C[C@]5(C)[C@H]4[C@@H](O)C[C@]3(C)[C@]2(C(=O)CO)O1 [FLUNISOLIDE]
MN index (motoneuron cell survival number ratio as compared to negative control) [1]: 7.86

COc1ccc2c(c1OC)C(=O)OC2C1c2cc3c(cc2CCN1C)OCO3 [HYDRASTINE (1R,9S)]
MN index (motoneuron cell survival number ratio as compared to negative control) [1]: 7.53

Oc1ccc(O)cc1 [HYDROQUINONE]
MN index (motoneuron cell survival number ratio as compared to negative control) [1]: 7.96

Cc1ccc(NC(=O)c2ccc(CN3CCN(C)CC3)cc2)cc1Nc1nccc(-c2cccnc2)n1 [Imatinib]
survival of motor neuron [1]: increased survival of motor neuron

O=C1Nc2ccccc2/C1=C1/Nc2ccccc2/C1=N\O [Indirubin-3′-monoxime]
MN index (motoneuron cell survival number ratio as compared to negative control) [1]: 7.54

O=C(c1ccc(/C=C/c2n[nH]c3ccccc23)cc1)N1CCNCC1 [KW 2449]
MN index (motoneuron cell survival number ratio as compared to negative control) [1]: 7.72

Cn1cnc(-c2cc3nccc(Oc4ccc(NC(=S)NC(=O)Cc5ccccc5)cc4F)c3s2)c1 [MGCD-265]
MN index (motoneuron cell survival number ratio as compared to negative control) [1]: 7.62

Cc1cn(-c2cc(NC(=O)c3ccc(C)c(Nc4nccc(-c5cccnc5)n4)c3)cc(C(F)(F)F)c2)cn1 [Nilotinib]
survival of motor neuron [1]: increased survival of motor neuron

O=C(/C=C/C=C/c1ccc2c(c1)OCO2)N1CCCCC1 [PIPERINE]
MN index (motoneuron cell survival number ratio as compared to negative control) [1]: 7.39

Cc1ccc(Nc2nccc(N(C)c3ccc4c(C)n(C)nc4c3)n2)cc1S(N)(=O)=O [Pazopanib Hydrochloride]
MN index (motoneuron cell survival number ratio as compared to negative control) [1]: 9.53

Cc1ccc(Nc2nccc(N(C)c3ccc4c(C)n(C)nc4c3)n2)cc1S(N)(=O)=O [Pazopanib]
cell survival rate improvement, C9orf72 mutation [2]: ○ (cell survival rate improvement not less than 20%)
cell survival rate improving effect, significance, C9orf72 mutation [2]: ○ (significant difference (p < 0.05))
cell survival rate improvement, sporadic [3]: x (cell survival rate improvement less than 20%)
cell survival rate improving effect, significance, sporadic [3]: x (no significant difference (p ≧ 0.05))
cell survival rate improvement, SOD1 mutation [1]: x (cell survival rate improvement less than 20%)
cell survival rate improving effect, significance, SOD1 mutation [1]: ○ (significant difference (p < 0.05))

Cc1cc2nc3c(=O)[nH]c(=O)nc-3n(C[C@H](O)[C@H](O)[C@H](O)CO)c2cc1C [RIBOFLAVIN]
MN index (motoneuron cell survival number ratio as compared to negative control) [1]: 9.55

O=C(c1ccc(OCCN2CCCCC2)cc1)c1c(-c2ccc(O)cc2)sc2cc(O)ccc12 [Raloxifene]
dose correlation in the protection effect on motoneuron cell having SOD1 mutation [1]: increase in the effect in a dose-dependent manner

CNC(=O)c1cc(Oc2ccc(NC(=O)Nc3cc(C(C)(C)C)nn3-c3ccc4ncccc4c3)c(F)c2)ccn1 [Rebastinib]
survival of motor neuron [1]: increased survival of motor neuron

O=C1c2ccccc2-c2n[nH]c3cccc1c23 [SP600125]
MN index (motoneuron cell survival number ratio as compared to negative control) [1]: 8.38

COc1ccc2c(c1)/C(=C/c1c[nH]cn1)C(=O)N2 [SU9516]
MN index (motoneuron cell survival number ratio as compared to negative control) [1]: 8.39

CCN(CC)CCNC(=O)c1c(C)[nH]c(/C=C2\C(=O)Nc3ccc(F)cc32)c1C [Sunitinib]
cell survival rate improvement, C9orf72 mutation [2]: ○ (cell survival rate improvement not less than 20%)
cell survival rate improving effect, significance, C9orf72 mutation [2]: ○ (significant difference (p < 0.05))
cell survival rate improvement, sporadic [3]: ○ (cell survival rate improvement not less than 20%)
cell survival rate improving effect, significance, sporadic [3]: ○ (significant difference (p < 0.05))
cell survival rate improvement, SOD1 mutation [1]: ○ (cell survival rate improvement not less than 20%)
cell survival rate improving effect, significance, SOD1 mutation [1]: ○ (significant difference (p < 0.05))

NCCNc1ncc(C(N)=O)c(Nc2cccc(C(F)(F)F)c2)n1 [Syk Inhibitor II]
MN index (motoneuron cell survival number ratio as compared to negative control) [1]: 7.59

Cc1cc(Nc2cc(N3CCN(C)CC3)nc(Sc3ccc(NC(=O)C4CC4)cc3)n2)n[nH]1 [VX-680, tozasertib]
MN index (motoneuron cell survival number ratio as compared to negative control) [1]: 9.58

O=C1NC(=O)c2c1c(-c1ccccc1Cl)cc1[nH]c3ccc(O)cc3c21 [Weel Inhibitor]
MN index (motoneuron cell survival number ratio as compared to negative control) [1]: 7.18

Cc1c(C)c2c(c(C)c1O)CC[C@@](C)(CCC[C@H](C)CCC[C@H](C)CCCC(C)C)O2 [alpha- TOCHOPHEROL, alpha-TOCHOPHEROL]
MN index (motoneuron cell survival number ratio as compared to negative control) [1]: 9.46

Bosutinib [Bosutinib (SKI-606)]
MN index (motoneuron cell survival number ratio as compared to negative control) [1]: 7.20

Sunitinib Malate
MN index (motoneuron cell survival number ratio as compared to negative control) [1]: 8.13
